Values quoted from earlier work, collected in patent US20040038863A1, “Medical indication” (priority 2002, published 2004).

Settings: in postmenopausal women; background value used to set the washout period

terminal elimination half-life: approximately 24 hours
SMILES: C=C1C[C@@H]2[C@H](CC[C@]3(C)C(=O)CC[C@@H]23)[C@@]2(C)C=CC(=O)C=C12 [exemestane, 6-methylenandrosta-1,4-diene-3,17-dione]
